Series [1] addresses c-Raf-1 (Homo sapiens, UniProt P04049). As to the kind of experiment: c-Raf-1 biochemical kinase inhibition (AlphaScreen, biotin-MEK1 substrate). Conditions: 100 μM ATP. The gist of the method:
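Eight-point compound series (made from a 0.1 mM DMSO stock) tested against each Raf enzyme with biotin-MEK1 substrate and 100 μM final ATP.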
In general terms: Alpha assays give light when donor and acceptor beads are brought close together.

Series [2] addresses CYP2C19 (Homo sapiens, UniProt P33261). Briefly: CYP2C19 inhibition (fluorescent substrate). Conditions: CYP2C19, CEC substrate; read-out: Cyp IC50 2C19. The series is classed as in vitro ADME. Here is the method:
CYP (Cytochrome P450) enzymes are the major drug metabolizing enzymes present in the liver. The inhibition of CYP enzyme activity (IC50) for each of CYP1A2, CYP2C19, CYP2C9, CYP2D6, CYP3A4(BFC) and CYP3A4(BQ) is determined for compounds, where inhibition of metabolism of a known substrate leads to a decrease in the fluorescence of the metabolized product. The fluorescence of the product is monitored as a function of compound concentration.
Compounds are dissolved in dimethyl sulfoxide to a concentration of 100 mM. These are diluted 1 μL into 82 μL of acetonitrile. […] These are then serially diluted 1:1 (160 μL to 160 μL co-factor mix) for a total of 10 points. A 10 μL aliquot of this final mixture is dispensed into 384 well assay plates and incubated for 10 minutes at 37° C. […] Assay plates are incubated at 37° C. […] The signal versus compound concentration is used to determine the IC50. The enzymes and substrates for this assay are obtained from BD Biosciences.

Series [3] relates to SW620 colon adenocarcinoma cells (wild-type B-RAF). As to the kind of experiment: SW620 cell growth inhibition (ATPlite). It is filed as cell-based. Conditions: Homo sapiens, SW-620, 72 h; SW620, 3 days incubation. The gist of the method: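 ATPlite luminescence, taken as a cell-number measure, gave IC50 values after a 3-day 37° C, 5% CO2 incubation. Compounds were tested as 8-point threefold titrations, highest final concentration 10 μM, added to cells seeded the day before.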
In general terms: In ATP-based viability assays light output follows the ATP content of the culture.

Series [4] has as its target CYP3A4(BFC) (Homo sapiens, UniProt P08684). As to the kind of experiment: CYP3A4(BFC) inhibition (fluorescent substrate). It is filed as in vitro ADME. Conditions: read-out: Cyp IC50 3A4(BFC). The essentials: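 Compound, from a 100 mM DMSO stock and diluted 1:1 over 10 points in co-factor mix, was incubated at 37° C with enzyme and a known substrate. Decrease in fluorescent product against concentration gave the IC50.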

What is called IC50 is the midpoint of a concentration-inhibition curve.

Bounds are passed on as bounds.

Sequence of CYP2C19 (P33261 whole entry): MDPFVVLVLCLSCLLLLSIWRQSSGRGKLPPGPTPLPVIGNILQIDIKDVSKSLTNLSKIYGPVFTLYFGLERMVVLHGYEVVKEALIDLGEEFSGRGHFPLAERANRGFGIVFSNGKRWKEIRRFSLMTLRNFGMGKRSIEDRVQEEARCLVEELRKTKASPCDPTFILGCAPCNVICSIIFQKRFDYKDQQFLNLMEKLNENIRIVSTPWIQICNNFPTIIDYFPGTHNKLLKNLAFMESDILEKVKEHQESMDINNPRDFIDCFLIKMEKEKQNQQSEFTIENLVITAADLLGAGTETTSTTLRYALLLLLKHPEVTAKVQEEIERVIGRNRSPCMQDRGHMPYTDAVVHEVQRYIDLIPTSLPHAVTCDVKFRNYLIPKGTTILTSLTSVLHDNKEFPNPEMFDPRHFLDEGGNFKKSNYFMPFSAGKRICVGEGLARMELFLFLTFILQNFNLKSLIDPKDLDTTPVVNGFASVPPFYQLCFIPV
Sequence of CYP3A4(BFC) (P08684 whole entry): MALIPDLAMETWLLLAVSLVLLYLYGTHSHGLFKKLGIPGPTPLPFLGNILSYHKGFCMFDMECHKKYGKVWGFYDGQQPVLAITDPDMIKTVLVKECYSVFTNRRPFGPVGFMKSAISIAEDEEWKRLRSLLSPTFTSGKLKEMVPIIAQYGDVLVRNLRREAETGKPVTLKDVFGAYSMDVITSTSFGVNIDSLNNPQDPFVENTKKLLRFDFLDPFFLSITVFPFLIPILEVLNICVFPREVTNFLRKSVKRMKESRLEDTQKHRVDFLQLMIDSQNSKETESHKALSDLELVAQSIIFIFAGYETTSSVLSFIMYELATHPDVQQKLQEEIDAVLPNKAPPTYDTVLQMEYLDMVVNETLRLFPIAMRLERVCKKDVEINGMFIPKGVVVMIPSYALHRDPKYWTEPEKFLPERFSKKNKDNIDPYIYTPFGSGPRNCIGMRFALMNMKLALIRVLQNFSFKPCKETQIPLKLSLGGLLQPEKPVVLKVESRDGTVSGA
Sequence of c-Raf-1 (P04049 whole entry): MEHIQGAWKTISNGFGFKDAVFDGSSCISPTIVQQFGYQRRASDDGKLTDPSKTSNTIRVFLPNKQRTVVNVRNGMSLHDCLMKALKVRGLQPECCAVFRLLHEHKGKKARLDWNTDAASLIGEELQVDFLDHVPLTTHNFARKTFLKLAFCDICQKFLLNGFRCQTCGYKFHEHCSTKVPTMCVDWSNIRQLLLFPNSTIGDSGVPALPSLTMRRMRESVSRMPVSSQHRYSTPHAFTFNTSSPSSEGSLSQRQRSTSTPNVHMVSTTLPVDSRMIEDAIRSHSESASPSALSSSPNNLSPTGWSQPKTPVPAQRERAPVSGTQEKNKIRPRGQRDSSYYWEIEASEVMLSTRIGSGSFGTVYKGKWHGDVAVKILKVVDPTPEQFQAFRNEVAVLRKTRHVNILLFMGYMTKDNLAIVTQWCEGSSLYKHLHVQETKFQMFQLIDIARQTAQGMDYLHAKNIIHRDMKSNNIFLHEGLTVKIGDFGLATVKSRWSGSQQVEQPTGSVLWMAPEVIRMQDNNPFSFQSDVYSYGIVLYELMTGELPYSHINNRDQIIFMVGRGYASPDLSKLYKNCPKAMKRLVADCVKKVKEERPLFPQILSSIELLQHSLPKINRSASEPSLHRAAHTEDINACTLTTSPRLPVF

`CCCS(=O)(=O)Nc1ccc(F)c(C(=O)c2c[nH]c3ncc(-c4ccc(S(=O)(=O)NC5CC5)cc4)cc23)c1F` [P-2168, N-Cyclopropyl-4-{3-[2,6-difluoro-3-(propane-1-sulfonylamino)-benzoyl]-1H-pyrrolo[2,3-b]pyridin-5-yl}-benzenesulfonamide]: the IC50 in series [1] is less than 0.01 µM; in series [2] it was 5 to 10 µM; in series [3], less than 5 µM.
Consider `CCCS(=O)(=O)Nc1ccc(F)c(C(=O)c2c[nH]c3ncc(-c4ccc(NS(C)(=O)=O)cc4)cc23)c1F` [P-2165, Propane-1-sulfonic acid {2,4-difluoro-3-[5-(4-methanesulfonylamino-phenyl)-1H-pyrrolo[2,3-b]pyridine-3-carbonyl]-phenyl}-amide], for which the IC50 in series [1] was less than 0.01 µM; in series [2], 5 to 10 µM; in series [3], less than 10 µM; in series [4], more than 10 µM.
The like results for `CCCS(=O)(=O)Nc1ccc(F)c(C(=O)c2c[nH]c3ncc(-c4ccc(S(=O)(=O)N(C)C)cc4)cc23)c1F` [P-2185, 4-{3-[2,6-Difluoro-3-(propane-1-sulfonylamino)-benzoyl]-1H-pyrrolo[2,3-b]pyridin-5-yl}-N,N-dimethyl-benzenesulfonamide] were, in that order, less than 0.01 µM, more than 10 µM, more than 10 µM and more than 10 µM.
The like results for `CCCS(=O)(=O)Nc1ccc(F)c(C(=O)c2c[nH]c3ncc(-c4ccc(N)nc4)cc23)c1F` [P-2214, Propane-1-sulfonic acid {3-[5-(6-amino-pyridin-3-yl)-1H-pyrrolo[2,3-b]pyridine-3-carbonyl]-2,4-difluoro-phenyl}-amide] were, in that order, less than 0.01 µM, 5 to 10 µM, less than 20 µM and more than 10 µM.
The like results for `N#Cc1cnc2[nH]cc(C(=O)c3c(F)ccc(NS(=O)(=O)c4ccccc4)c3F)c2c1` [P-2046, N-[3-(5-Cyano-1H-pyrrolo[2,3-b]pyridine-3-carbonyl)-2,4-difluoro-phenyl]-benzenesulfonamide] were, in that order, less than 0.01 µM, less than 5 µM, less than 5 µM and more than 10 µM.
For `CCCS(=O)(=O)Nc1ccc(F)c(C(=O)c2c[nH]c3ncc(-c4ccc(S(=O)(=O)CC)cc4)cc23)c1F` [P-2218, Propane-1-sulfonic acid {3-[5-(4-ethanesulfonyl-phenyl)-1H-pyrrolo[2,3-b]pyridine-3-carbonyl]-2,4-difluoro-phenyl}-amide], the figures for the IC50 in series [1], in series [3] and in series [4] were less than 0.1 µM, less than 20 µM and more than 10 µM, respectively.
As for `COc1ncc(-c2cnc3[nH]cc(C(=O)c4c(F)ccc(NS(=O)(=O)c5cc(F)ccc5F)c4F)c3c2)cn1` [P-2042, N-{2,4-Difluoro-3-[5-(2-methoxy-pyrimidin-5-yl)-1H-pyrrolo[2,3-b]pyridine-3-carbonyl]-phenyl}-2,5-difluoro-benzenesulfonamide], the IC50 in series [1] is less than 0.01 µM; in series [2] it was more than 10 µM; in series [3], more than 10 µM; in series [4], more than 10 µM.
As to `N#Cc1ccnc2[nH]cc(C(=O)c3c(F)ccc(NS(=O)(=O)c4ccccc4F)c3F)c12` [P-2020, N-[3-(4-Cyano-1H-pyrrolo[2,3-b]pyridine-3-carbonyl)-2,4-difluoro-phenyl]-2-fluoro-benzenesulfonamide], the IC50 in series [1] was less than 0.01 µM; in series [2] it was more than 10 µM; in series [3], more than 10 µM; in series [4], more than 10 µM.
As to `CCCS(=O)(=O)Nc1cccc(C(=O)c2c[nH]c3ncc(-c4cnc(OC)nc4)cc23)c1F` [P-2407, Propane-1-sulfonic acid {2-fluoro-3-[5-(2-methoxy-pyrimidin-5-yl)-1H-pyrrolo[2,3-b]pyridine-3-carbonyl]-phenyl}-amide], the half-maximal inhibitory concentration (IC50) is less than 0.01 µM in series [1], less than 5 µM in series [2], more than 10 µM in series [3] and more than 10 µM in series [4].
Take `CCCS(=O)(=O)Nc1ccc(F)c(C(=O)c2c[nH]c3ncc(-c4cnc(SC)nc4)cc23)c1F` [P-2189, Propane-1-sulfonic acid {2,4-difluoro-3-[5-(2-methylsulfanyl-pyrimidin-5-yl)-1H-pyrrolo[2,3-b]pyridine-3-carbonyl]-phenyl}-amide]: the concentration for half-maximal inhibition (IC50) in series [1] is less than 0.01 µM; in series [2], 5 to 10 µM; in series [3] it was more than 10 µM; in series [4], more than 10 µM.
In the case of `COc1ccnc2[nH]cc(C(=O)c3c(F)ccc(NS(=O)(=O)c4cc(F)ccc4F)c3F)c12` [P-2022, N-[2,4-Difluoro-3-(4-methoxy-1H-pyrrolo[2,3-b]pyridine-3-carbonyl)-phenyl]-2,5-difluoro-benzenesulfonamide], the IC50 is less than 0.01 µM in series [1], more than 10 µM in series [2] and more than 10 µM in series [3].
With `CCCS(=O)(=O)Nc1ccc(F)c(C(=O)c2c[nH]c3ncc(-c4cnc(OC)nc4OC)cc23)c1F` [P-2199, Propane-1-sulfonic acid {3-[5-(2,4-dimethoxy-pyrimidin-5-yl)-1H-pyrrolo[2,3-b]pyridine-3-carbonyl]-2,4-difluoro-phenyl}-amide], the IC50 in series [1] is less than 0.01 µM; in series [2], more than 10 µM; in series [4], more than 10 µM.
With `Cc1cnc2[nH]cc(C(=O)c3c(F)ccc(NS(=O)(=O)c4c(F)cccc4F)c3F)c2c1` [P-2024, N-[2,4-Difluoro-3-(5-methyl-1H-pyrrolo[2,3-b]pyridine-3-carbonyl)-phenyl]-2,6-difluoro-benzenesulfonamide], the IC50 is less than 0.01 µM in series [1], more than 10 µM in series [2] and more than 10 µM in series [4].
Take `O=C(c1c(F)ccc(NS(=O)(=O)c2c(F)cccc2F)c1F)c1c[nH]c2ncc(Cl)cc12` [P-2003, N-[3-(5-Chloro-1H-pyrrolo[2,3-b]pyridine-3-carbonyl)-2,4-difluoro-phenyl]-2,6-difluoro-benzenesulfonamide]: the IC50 in series [1] was less than 0.01 µM; in series [2] it was more than 10 µM; in series [4], more than 10 µM.
On to `Cc1cnc2[nH]cc(C(=O)c3c(F)ccc(NS(=O)(=O)c4cccnc4)c3F)c2c1` [P-2069, Pyridine-3-sulfonic acid [2,4-difluoro-3-(5-methyl-1H-pyrrolo[2,3-b]pyridine-3-carbonyl)-phenyl]-amide], for which the figures for the IC50 in series [1], in series [2] and in series [4] were less than 0.01 µM, more than 10 µM and less than 5 µM, respectively.
In the case of `CCCS(=O)(=O)Nc1ccc(F)c(C(=O)c2c[nH]c3ncc(-c4cnc(N5CCCC5)nc4)cc23)c1F` [P-2219, Propane-1-sulfonic acid {2,4-difluoro-3-[5-(2-pyrrolidin-1-yl-pyrimidin-5-yl)-1H-pyrrolo[2,3-b]pyridine-3-carbonyl]-phenyl}-amide], the figures for the IC50 in series [1], in series [2] and in series [3] were less than 0.1 µM, less than 5 µM and more than 10 µM, respectively.
For the compound `CCCS(=O)(=O)Nc1ccc(F)c(C(=O)c2c[nH]c3ncc(-c4ccc(S(N)(=O)=O)cc4)cc23)c1F` [P-2194, 4-{3-[2,6-Difluoro-3-(propane-1-sulfonylamino)-benzoyl]-1H-pyrrolo[2,3-b]pyridin-5-yl}-benzenesulfonamide], the half-inhibitory concentration (IC50) in series [1] is less than 0.01 µM; in series [2], more than 10 µM; in series [4], more than 10 µM.

Source of the values: patent US8198273B2, “Compounds and methods for kinase modulation, and indications therefor” (Plexxikon Inc., priority 2009, dated 2012).
